We go through one substance from US20250027086A1, “COMPOSITIONS AND METHODS FOR TREATMENT OF CANCERS USING MODIFIED siRNA-GEM AGENTS” (Sirnaomics, Inc., priority 2022, published 2025).

“Also recorded” adds a separate entry of the source.

The subject of one data set is OVCAR3 cells. Briefly: Cell viability in ovarian cancer cell line OVCAR3. It counts as cell-based. The following applies: OVCAR3, 800 cells per well; FIG. 13(b). How it is done:
MIA PaCa-2, […], LS180, HT1376, HT29, H358, H1299, OVCAR-3, HTB-9 and Panc 10.05 cells were obtained from ATCC (Rockville, MD). MiaPaCa cells were cultured in DMEM medium supplemented with 10% FBS. H358, H1299, HTB-9, N87 and Panc 10.05 cells were cultured in DMEM/10% FBS; LS180 and HT1376 in EMEM/10% FBS; HT29 cells in McCoy5A/10% FBS; OVCAR-3 cells were incubated in RPMI/20% FBS. All cells were maintained at 37 degrees C. in an atmosphere containing 5% CO^2.
The day before transfection, cells were seeded in a 384-well plate at an optimal density of between 300 and 800 cells/well. […]
Ninety-six hours following the addition of GEM or transfection mixtures, the number of viable cells was determined with CellTiter-Glo®-2.0 reagent (Promega, Madison, WI) by measuring luminescent signal using a Cytation 5 plate reader (BioTek Inc, Winooski, VT). […]
Using the same or similar experimental condition as are described above in Example 1, the effects of (i) PGN7 (SEQ. ID No. 9-10) plus a non-signaling oligonucleotide (“NS”), (ii) BCLxL #5 (SEQ. ID No. 14)+NS, and (iii) PGN7 and BCLxL #5 in combination were evaluated and are shown in triple negative breast cancer (MDA-MB231) and ovarian cancer (OVCAR3) cell lines in FIGS. 13 (a)-(b). […]

Data set [1] relates to MiaPaCa-2 xenograft tumors. The experiment in a line: Xenograft tumor growth in NU/NU mice after subcutaneous implantation of MiaPaCa tumor cells, intratumoral injections. The class given is in vivo, mouse. The conditions noted are these: vs control; for tumor weight: xenografts harvested Day 25, n=8, FIG. 14(a). The protocol:
Twenty-four NU/NU nude mice were purchased from Charles River Laboratories (Frederick, MD) and each housed in a single cage with standard bedding, lighting and ad libitum feed.
The human pancreatic cell carcinoma MiaPaCa-2 cell line was obtained from American Type Culture Collection (ATCC, CRL-1420™) and cultured in DMEM with 10 percent fetal bovine serum and 1 percent pen-strep in a humidified incubator with temperature at 37 degrees C., and 5 percent CO2. Subcultures were made when cell volume reached ˜80-90 percent (roughly 3-5 days). Media was changed every 3 to 4 days. All experiments were performed when the cells reached approximately 80-90 percent confluence.
MiaPaCa tumor cells (2.5×10^6 cells) in 100 μl of growth media and 100 μl of Matrigel were injected subcutaneously into the left flank of each mouse on Day 0. Body weight measured using a digital scale, and tumor volume measured using a digital caliper, were recorded […]. Tumor volume was measured using external digital calipers with modified ellipsoid formula: ½(length×width^2).
The mice were assigned to one of three groups (n=8) approximately five to ten days after subcutaneous implantation of MiaPaCa cells, when tumors had reached 100 mm^3 in volume. Twice weekly (Mon. and Thurs.) for three-four weeks, mice in all three groups received intratumoral injections of 80 μl each. Mice in the control group were injected with non-silencing (NS) siRNA with HKP(+H) as a carrier. Mice in one of the treatment groups were injected with PGN7, i.e., GEM siRNA with HKP(+H)shk1 (2.z), (SEQ. ID No. 9-10). Mice in the second treatment group were injected with STD1, i.e., GEM siRNA with HKP(+H) chk1 (2.z) (SEQ. ID No. 3-4). All injections were given under isoflurane anesthesia to minimize discomfort
Tumor volume (mm^3) and body weights were measured on Days 0, 4, 7, 11, 14, 18, 21 and 25. Mean±SE for each group (PGN7, STD1 and control) were statistically compared using analysis of variance (ANOVA) with the Tukey test. Mice were also observed for excess growth, adverse reactions to treatments and other observable, adverse signs of health. Treatments were blinded to the tracers and data analysts.
All mice were sacrificed and the implanted xenograft removed on Day 26 after initial treatment (the last treatment given on Day 25). One-third of the xenograft was fixed in […] formalin for histological analysis; one-third was frozen and one-third was preserved in RNAlater stabilization and storage solution.

By IC50 is commonly meant the concentration needed to halve the response being measured. Take “PGN7: modified siRNA-GEM RNAi agent (SEQ. ID No. 9-10): sense 5′-AAGAAAgAgau[GEM]uGuAu[GEM]AAu-3′; antisense 5′-AuUGAuACAGAuCuCuUuCuU[GEM][GEM]dTdT-3′ (sense AAGAAAGAGATCTGTATCAAT; antisense ATTGATACAGATCTCTTTCTTCCTT; GEM modifications; 2'-modified bases; dTdT overhang; modified_base 1 OTHER; 2'-O-methyl modified nucleotide; modified_base 2 OTHER; modified_base 3 OTHER; modified_base 4 OTHER; modified_base 5 OTHER; modified_base 6 OTHER; modified_base 7 OTHER; 2'-fluoro modified nucleotide; modified_b; 2'-O-me)”: the IC50 in the data set on OVCAR3 cells turned out to be 0.5 nM. Further, in data set [1] (intratumoral twice weekly with HKP(+H), ANOVA Tukey, p<0.02, from 14 days, FIG. 14(c)), the tumor volume entry is recorded as “effectively attenuated the increase; also recorded: significantly reduced tumor volume; also recorded: attenuating the growth of pancreatic tumors”. In data set [1] (over 25 days, p>0.05, FIG. 14(b)), the body weight entry was “did not differ”. The tumor weight result in data set [1] (p>0.05) is recorded as “did not differ”; in data set [1] (p>0.05, listed as PGN 7) it was “did not differ significantly”.
